Columns and labels:
[1] = test system: A375; experiment: In vitro cell experiment (MTT), A375; format: cell-based; conditions: A-375, 72 h, human melanoma cells (KDR expressing)
Method: (§1) Cells in logarithmic growth phase were seeded at a certain density in a 96-well plate (200 μL/well). The cells were allowed to grow for 24 h and subsequently treated with different concentrations of drugs (including a blank group and a control group) and incubated for 72 h at 37° C. Each concentration in a given experiment was tested in triplicate. After 72 h of exposure, 20 μL of the MTT labeling reagent was added to the medium (the final concentration of MTT was 0.5 mg/mL), and the cells were incubated for additional 4 h at 37° C. Following this process, 180 μL of the medium was removed and 130 μL of DMSO was added to each well, or the medium was completely removed and 150 μL of DMSO was added to each well. Then the plate was shaken and mixed in a micro-oscillator. Finally the optical density (OD) of each sample was measured in a micro-plate reader at 550 nm. Cell inhibition rate was calculated according to the following formula: […]
(§2) According to cell inhibition rates, IC50 was calculated by LOGIT method. The experiments were repeated twice and the data was expressed as means±SD.

[2] = test system: H292; experiment: In vitro cell experiment (MTT), H292; format: cell-based; conditions: NCI-H292, 72 h, human lung carcinoma cells (EGFR1 overexpressing)
Method: as §1, §2

[3] = test system: HCC827; experiment: In vitro cell experiment (MTT), HCC827; format: cell-based; conditions: 72 h, human non-small cell lung carcinoma (EGFR1 19 exon mutation)
Method: as §1, §2

[4] = test system: Eca109; experiment: In vitro cell experiment (MTT), Eca109; format: cell-based; conditions: ECa-109, 72 h, human esophageal carcinoma cells
Method: as §1, §2

[5] = test system: HCT116; experiment: In vitro cell experiment (MTT), HCT116; format: cell-based; conditions: HCT-116, 72 h, human colon carcinoma cells
Method: as §1, §2

[6] = test system: HUVEC; experiment: In vitro cell experiment (MTT), HUVEC; format: cell-based; conditions: 72 h, human umbilical vein endothelial cell (KDR overexpressing)
Method: as §1, §2

[7] = biological target: PDGFRβ (Homo sapiens, UniProt P09619); experiment: In vitro enzyme experiment (ELISA), PDGFRβ; format: biochemical; conditions: Poly (Glu, Tyr)4:1 substrate, 5 μM ATP
PDGFRβ, sequence (P09619 33-1106, species assumed): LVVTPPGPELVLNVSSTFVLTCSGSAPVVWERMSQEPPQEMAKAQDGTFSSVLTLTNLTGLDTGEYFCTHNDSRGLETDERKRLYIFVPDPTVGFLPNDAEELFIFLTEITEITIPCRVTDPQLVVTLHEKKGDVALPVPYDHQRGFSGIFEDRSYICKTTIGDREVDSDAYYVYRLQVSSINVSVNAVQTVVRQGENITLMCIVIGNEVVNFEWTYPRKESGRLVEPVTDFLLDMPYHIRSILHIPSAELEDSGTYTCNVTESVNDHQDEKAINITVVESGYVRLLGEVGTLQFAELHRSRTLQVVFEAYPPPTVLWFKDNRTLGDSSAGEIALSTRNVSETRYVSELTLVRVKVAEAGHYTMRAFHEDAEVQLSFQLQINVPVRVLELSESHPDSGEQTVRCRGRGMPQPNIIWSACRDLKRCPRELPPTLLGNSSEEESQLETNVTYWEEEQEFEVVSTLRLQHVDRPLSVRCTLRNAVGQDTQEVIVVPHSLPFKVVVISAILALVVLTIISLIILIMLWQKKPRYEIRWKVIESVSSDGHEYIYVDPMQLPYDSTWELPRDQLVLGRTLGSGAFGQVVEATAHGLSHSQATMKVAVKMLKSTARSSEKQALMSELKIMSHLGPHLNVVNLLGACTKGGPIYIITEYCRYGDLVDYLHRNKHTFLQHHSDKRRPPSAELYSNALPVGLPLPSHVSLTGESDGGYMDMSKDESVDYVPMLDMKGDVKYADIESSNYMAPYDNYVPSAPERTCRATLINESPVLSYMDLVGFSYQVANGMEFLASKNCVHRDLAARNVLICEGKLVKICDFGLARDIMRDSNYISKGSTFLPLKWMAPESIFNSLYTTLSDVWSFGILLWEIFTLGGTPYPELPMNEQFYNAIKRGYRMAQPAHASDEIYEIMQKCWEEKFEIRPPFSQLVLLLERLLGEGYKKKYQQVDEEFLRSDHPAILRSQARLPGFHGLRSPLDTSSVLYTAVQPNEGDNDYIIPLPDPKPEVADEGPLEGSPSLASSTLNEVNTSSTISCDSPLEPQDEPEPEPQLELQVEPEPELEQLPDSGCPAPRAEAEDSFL
Method: PDGFRβ: Platelet-derived growth factor receptor β
(§3) ELISA: The enzyme plate was coated by enzyme reaction substrate (Poly (Glu, Tyr)4:1) at a density of 20 μg/ml. Then the enzyme, the sample and 5 μM ATP were mixed in the well to react. After the reaction, the substrate phosphorylation was detected by anti-phosphotyrosine monoclonal antibody (4G10). In the next step, the goat-anti-mouse IgG linking with horse radish peroxidase (HRP) and tetramethylbenzidine (TMB) were added sequentially in the well to evaluate the level of substrate phosphorylation by the degree of color depth. In the experiment, a blank group without tyrosine kinase and a control group with the corresponding concentration of DMSO were established. Finally, 50 μL/well of H2SO4 at a concentration of 0.18M was added in each well to stop the reaction. The optical density (OD) of each sample was measured in a micro-plate reader at 450 nm.
(§4) The relative inhibition rate of the compound against tyrosine kinase protein was determined.
(§5) According to the inhibition rates at different concentrations, IC50 was calculated by LOGIT method. The experiments were repeated three times, and the average of three IC50 values was the final index to evaluate the ability of inhibition.

[8] = biological target: RET (Homo sapiens, UniProt P07949); experiment: In vitro enzyme experiment (ELISA), RET; format: biochemical; conditions: Poly (Glu, Tyr)4:1 substrate, 5 μM ATP
RET, sequence (P07949 29-1114, species assumed): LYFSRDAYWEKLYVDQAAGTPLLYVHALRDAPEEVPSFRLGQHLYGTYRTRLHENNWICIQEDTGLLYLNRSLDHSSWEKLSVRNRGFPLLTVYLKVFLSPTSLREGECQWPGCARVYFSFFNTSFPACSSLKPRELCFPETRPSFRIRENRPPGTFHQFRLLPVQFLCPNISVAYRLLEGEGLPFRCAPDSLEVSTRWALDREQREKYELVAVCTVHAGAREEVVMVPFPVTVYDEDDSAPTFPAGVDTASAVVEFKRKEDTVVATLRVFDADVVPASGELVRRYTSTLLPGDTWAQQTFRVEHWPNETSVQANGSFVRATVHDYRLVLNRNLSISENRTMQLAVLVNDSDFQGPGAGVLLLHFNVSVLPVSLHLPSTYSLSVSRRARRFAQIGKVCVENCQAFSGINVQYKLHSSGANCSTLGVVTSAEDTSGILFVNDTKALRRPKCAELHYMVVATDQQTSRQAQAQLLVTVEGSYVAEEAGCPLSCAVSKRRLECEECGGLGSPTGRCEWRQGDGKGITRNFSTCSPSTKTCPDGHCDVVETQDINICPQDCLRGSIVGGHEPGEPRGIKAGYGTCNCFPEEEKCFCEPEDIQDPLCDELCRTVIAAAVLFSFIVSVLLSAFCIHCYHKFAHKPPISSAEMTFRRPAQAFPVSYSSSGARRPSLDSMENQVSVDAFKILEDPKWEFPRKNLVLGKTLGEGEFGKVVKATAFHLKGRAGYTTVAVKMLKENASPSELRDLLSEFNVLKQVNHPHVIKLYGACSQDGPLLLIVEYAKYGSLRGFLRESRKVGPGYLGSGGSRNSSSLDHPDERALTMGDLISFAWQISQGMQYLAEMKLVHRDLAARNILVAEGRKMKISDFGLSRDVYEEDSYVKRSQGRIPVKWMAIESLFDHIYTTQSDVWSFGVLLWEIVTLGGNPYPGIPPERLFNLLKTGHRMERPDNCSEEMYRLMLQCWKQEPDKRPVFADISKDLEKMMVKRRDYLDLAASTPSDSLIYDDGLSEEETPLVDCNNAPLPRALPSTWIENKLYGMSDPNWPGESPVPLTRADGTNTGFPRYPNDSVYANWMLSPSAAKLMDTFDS
Method: RET: A receptor involved in thyroid cancer
as §3, §4, §5

[9] = test system: SGC7901; experiment: In vitro cell experiment (MTT), SGC7901; format: cell-based; conditions: SGC-7901, 72 h, human gastric carcinoma cells
Method: as §1, §2

[10] = test system: HT-29; experiment: In vitro cell experiment (MTT), HT-29; format: cell-based; conditions: 72 h, human colon carcinoma cells (expressing both c-KIT and PDGFR)
Method: as §1, §2

[11] = test system: 3T3swiss; experiment: In vitro cell experiment (MTT), 3T3swiss; format: cell-based; conditions: Fibroblast, 72 h, mouse fibroblasts (PDGFR overexpressing)
Method: as §1, §2

[12] = biological target: AXL (Homo sapiens, UniProt P30530); experiment: In vitro enzyme experiment (ELISA), AXL; format: biochemical; conditions: Poly (Glu, Tyr)4:1 substrate, 5 μM ATP
AXL, sequence (P30530 473-894): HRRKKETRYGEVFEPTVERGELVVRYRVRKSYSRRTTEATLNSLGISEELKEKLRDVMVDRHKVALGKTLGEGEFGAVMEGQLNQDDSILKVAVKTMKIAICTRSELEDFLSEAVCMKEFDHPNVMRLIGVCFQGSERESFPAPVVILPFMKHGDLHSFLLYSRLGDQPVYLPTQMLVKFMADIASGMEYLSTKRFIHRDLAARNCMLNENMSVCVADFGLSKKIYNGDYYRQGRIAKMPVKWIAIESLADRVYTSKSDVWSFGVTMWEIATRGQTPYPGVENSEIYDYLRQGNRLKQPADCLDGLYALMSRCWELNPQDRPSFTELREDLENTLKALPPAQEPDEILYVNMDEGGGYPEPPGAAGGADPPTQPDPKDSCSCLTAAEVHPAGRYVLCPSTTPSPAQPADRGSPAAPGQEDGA
Method: as §3, with “AXL: Anaplastic lymphoma kinase Methods: ELISA:” for “ELISA:”, “nm. The relative inhibition rate of the compound against tyrosine kinase protein was determined. According to the inhibition rates at different concentrations, IC50 was calculated by LOGIT method. The experiments were repeated three times, and the average of three IC50 values was the final index to evaluate the ability of inhibition.” for “nm.”

[13] = test system: Bel-7402; experiment: In vitro cell experiment (MTT), Bel-7402; format: cell-based; conditions: 72 h, human hepatoma carcinoma cells
Method: as §1, §2

[14] = biological target: KDR (Homo sapiens, UniProt P35968); experiment: In vitro enzyme experiment (ELISA), KDR; format: biochemical; conditions: Poly (Glu, Tyr)4:1 substrate, 5 μM ATP
Method: KDR: Human vascular endothelial growth factor receptor 2
as §3, §4, §5

[15] = biological target: FLT-1 (Homo sapiens, UniProt P17948); experiment: In vitro enzyme experiment (ELISA), FLT-1; format: biochemical; conditions: Poly (Glu, Tyr)4:1 substrate, 5 μM ATP
Method: FLT-1: Human vascular endothelial growth factor receptor 1
as §3, §4, §5

[16] = test system: PC-9; experiment: In vitro cell experiment (MTT), PC-9; format: cell-based; conditions: 72 h, human non-small-cell lung carcinoma cells (EGFR1 19 exon mutation)
Method: as §1, §2

[17] = test system: CFPAC-1; experiment: In vitro cell experiment (MTT), CFPAC-1; format: cell-based; conditions: 72 h, human pancreatic carcinoma cells
Method: as §1, §2

[18] = test system: SK-OV-3; experiment: In vitro cell experiment (MTT), SK-OV-3; format: cell-based; conditions: 72 h, human ovarian carcinoma cells (EGFR2 overexpressing)
Method: as §1, §2

[19] = test system: A431; experiment: In vitro cell experiment (MTT), A431; format: cell-based; conditions: A-431, 72 h, human epidermoid carcinoma (EGFR1 overexpressing)
Method: as §1, §2

[20] = test system: A498; experiment: In vitro cell experiment (MTT), A498; format: cell-based; conditions: 72 h, human renal carcinoma cells
Method: as §1, §2

[21] = test system: TT; experiment: In vitro cell experiment (MTT), TT; format: cell-based; conditions: 72 h, human thyroid carcinoma cells (RET C634W mutation)
Method: as §1, §2

[22] = biological target: BTK (Homo sapiens, UniProt Q06187); experiment: In vitro enzyme experiment (ELISA), BTK; format: biochemical; conditions: Poly (Glu, Tyr)4:1 substrate, 5 μM ATP
BTK, sequence (Q06187 whole entry, species assumed): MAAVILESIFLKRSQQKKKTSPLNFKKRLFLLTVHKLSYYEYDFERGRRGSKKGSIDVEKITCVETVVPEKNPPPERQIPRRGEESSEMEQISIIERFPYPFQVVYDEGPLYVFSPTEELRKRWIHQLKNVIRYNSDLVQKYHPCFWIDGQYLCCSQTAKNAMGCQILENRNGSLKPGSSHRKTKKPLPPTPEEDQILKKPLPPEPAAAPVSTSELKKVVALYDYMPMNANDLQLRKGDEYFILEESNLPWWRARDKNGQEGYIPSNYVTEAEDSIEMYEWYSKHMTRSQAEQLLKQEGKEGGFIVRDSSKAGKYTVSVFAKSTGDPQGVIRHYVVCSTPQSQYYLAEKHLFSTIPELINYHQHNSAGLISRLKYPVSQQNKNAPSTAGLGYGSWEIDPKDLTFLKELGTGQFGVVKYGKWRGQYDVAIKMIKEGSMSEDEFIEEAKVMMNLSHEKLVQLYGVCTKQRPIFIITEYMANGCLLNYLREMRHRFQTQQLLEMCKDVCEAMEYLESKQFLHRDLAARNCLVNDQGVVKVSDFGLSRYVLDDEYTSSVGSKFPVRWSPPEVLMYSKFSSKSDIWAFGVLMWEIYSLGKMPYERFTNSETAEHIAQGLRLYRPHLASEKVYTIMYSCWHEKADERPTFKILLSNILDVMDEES
Method: BTK: Bruton tyrosine kinase
as §3, §4, §5

[23] = test system: A549; experiment: In vitro cell experiment (MTT), A549; format: cell-based; conditions: 72 h, human non-small-cell lung carcinoma cells (EGFR1 wildtype)
Method: as §1, §2

[24] = biological target: EGFR (Homo sapiens, UniProt P00533); experiment: In vitro enzyme experiment (ELISA), EGFR; format: biochemical; conditions: Poly (Glu, Tyr)4:1 substrate, 5 μM ATP
Method: EGFR: Human epidermal growth factor receptor 1
as §3, §4, §5

[25] = biological target: FGFR-1 (Homo sapiens, UniProt P11362); experiment: In vitro enzyme experiment (ELISA), FGFR-1; format: biochemical; conditions: Poly (Glu, Tyr)4:1 substrate, 5 μM ATP
FGFR-1, sequence (P11362 22-822, species assumed): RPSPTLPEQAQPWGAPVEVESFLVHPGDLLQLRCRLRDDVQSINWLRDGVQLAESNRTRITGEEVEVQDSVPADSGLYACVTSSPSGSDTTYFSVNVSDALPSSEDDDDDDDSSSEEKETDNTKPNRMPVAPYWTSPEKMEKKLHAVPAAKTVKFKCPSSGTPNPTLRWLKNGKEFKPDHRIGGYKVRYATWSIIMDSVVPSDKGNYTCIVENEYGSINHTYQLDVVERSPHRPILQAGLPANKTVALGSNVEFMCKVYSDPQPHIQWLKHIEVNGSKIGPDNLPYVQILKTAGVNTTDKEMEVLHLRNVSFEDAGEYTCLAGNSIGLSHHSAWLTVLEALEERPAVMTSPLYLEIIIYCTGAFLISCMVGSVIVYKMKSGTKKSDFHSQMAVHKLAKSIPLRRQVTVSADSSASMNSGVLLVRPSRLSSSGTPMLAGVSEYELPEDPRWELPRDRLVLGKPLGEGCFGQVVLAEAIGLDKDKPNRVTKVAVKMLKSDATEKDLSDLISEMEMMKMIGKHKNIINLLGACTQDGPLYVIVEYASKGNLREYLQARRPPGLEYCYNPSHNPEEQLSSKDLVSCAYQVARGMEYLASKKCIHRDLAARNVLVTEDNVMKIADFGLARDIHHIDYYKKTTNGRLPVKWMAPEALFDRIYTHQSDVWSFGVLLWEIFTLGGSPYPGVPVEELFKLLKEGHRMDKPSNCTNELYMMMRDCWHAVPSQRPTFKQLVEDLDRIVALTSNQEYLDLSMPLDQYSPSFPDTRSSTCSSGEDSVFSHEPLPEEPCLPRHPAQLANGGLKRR
Method: FGFR-1: Fibroblast growth factor receptor 1
as §3, §4, §5

[26] = Mouse maximum tolerated dose (MTD) experiment; conditions: in vivo, mice, oral, administered 7 days then observed 7 days
Method: In the mouse MTD experiment, the mice were administrated with the present compounds.
Healthy mice, having a small difference in body's weights, were chosen. The chosen mice were placed in different layers of cages according to their body's weights. In each layer, the mice were randomly divided into groups. In each group, there were three mice.
The administration dosages were 1000, 500, 250, 125, 62.5 and 31.25 mg/kg respectively and each two dosages differed by a factor of 2. For each of administration dosages, three mice were allotted. The mice were administrated with the present compounds for 7 days and then observed for the next 7 days without the present compounds.
The present compounds were orally administrated with the mice according to the administration dosage and the body weight.

Compound | IC50 [1] [nM] | IC50 [2] [nM] | IC50 [3] [nM] | IC50 [4] [nM] | IC50 [5] [nM] | IC50 [6] [nM] | IC50 [7] [nM] | IC50 [8] [nM] | IC50 [9] [nM] | IC50 [10] [nM] | IC50 [11] [nM] | IC50 [12] [nM] | IC50 [13] [nM] | IC50 [16] [nM] | IC50 [17] [nM] | IC50 [18] [nM] | IC50 [19] [nM] | IC50 [20] [nM] | IC50 [21] [nM] | IC50 [23] [nM] | also measured
COc1cc2c(Nc3ccc(Br)cc3F)ncnc2cc1OCCN1CCCC1 [Compound 2, 4-(4-bromo-2-fluoroanilino)-6-methoxy-7-((2-pyrrolidine-1-yl)ethoxy)quinazoline] | 185 | 46.3 | 5.6 | 5800 | 1080 | 40.4 |  |  |  |  |  |  |  |  |  |  |  |  |  |  | 
COc1cc2c(Nc3ccc(Br)cc3F)ncnc2cc1OCCCN1CCCCC1 [Compound 45, 4-(2-fluoro-4-bromoanilino)-6-methoxy-7-(3-(piperidin-1-yl)-propoxy)quinazoline, reference compound] | 290 | 105 | 9.7 | 7020 | 1060 | 187 | 328 | 27.5 | 6260 | 3410 | 3790 | 2990 | 6260 | 18.7 | 6720 | 4990 | 4150 | 3150 | 314 | 5020 | IC50 [14]: 38.6 nM; IC50 [15]: 50.1 nM; IC50 [22]: 414 nM; IC50 [24]: 159 nM; IC50 [25]: 41.6 nM
COc1cc2c(Nc3ccc(Br)cc3F)ncnc2cc1OCC1CCN(C)CC1 [Vandetanib, reference compound] |  | 167 | 19.3 | 6860 | 1210 |  |  |  | 6850 | 3230 | 2530 |  | 6850 | 14.9 | 6260 | 3510 | 3230 | 2960 | 192 | 4450 | 
COc1cc2c(Nc3ccc(Br)cc3F)ncnc2cc1OCCCn1ccnc1 [Compound 14, 4-(4-bromo-2-fluoroanilino)-6-methoxy-7-(3-(1H-imidazol-1-yl)propoxy)quinazoline] | 161 | 37.4 | 8.9 |  | 913 |  |  |  |  |  |  |  | 5940 |  |  | 2880 |  | 2730 |  |  | MTD [26]: 62.5 to 125 mg/kg
COc1cc2c(Nc3ccc(Cl)cc3F)ncnc2cc1OCCCN1CCCC1 [Compound 44, 4-(2-fluoro-4-chloroanilino)-6-methoxy-7-(3-(pyrrolidin-1-yl)-propoxy)quinazoline, reference compound] | 315 | 124 |  | 6980 | 988 | 198 | 306 | 23.4 | 5250 | 3460 | 2900 | 2990 | 9680 | 16.8 | 6720 | 4030 | 3570 | 3050 | 257 | 4900 | IC50 [14]: 40.5 nM; IC50 [15]: 51.2 nM; IC50 [22]: 424 nM; IC50 [25]: 39.8 nM

Reference: patent US10421754B2, “Quinazoline derivative” (CSPC ZHONGQI PHARMACEUTICAL TECHNOLOGY (SHIJIAZHUANG) CO., …, priority 2014, dated 2019)
